# Measurements reported in patent publication US20170197910A1, “SUBSTITUTED VINYL AND ALKYNYL CYANOCYCLOALKANOLS AND VINYL AND ALKYNYL CYANOHETEROCYCLOALKANOLS AS ACTIVE AGENTS AGAINST ABIOTIC PLANT STRESS” (BAYER CROPSCIENCE AKTIENGESELLSCHAFT, priority 2014, published 2017).
# Legend:
# [1] = target: T1, phosphatase ABI1 via the co-regulator RCAR11/PYR1 (Arabidopsis thaliana, UniProt O49686+P49597); experiment: In vitro inhibition of phosphatase ABI1 via co-regulator RCAR11/PYR1, MUP dephosphorylation fluorescence assay; type: biochemical; conditions: concentration of 5 mM of the substance in DMSO and water; MUP substrate, 35° C., 20 minutes
# T1 sequence (O49686 1-191): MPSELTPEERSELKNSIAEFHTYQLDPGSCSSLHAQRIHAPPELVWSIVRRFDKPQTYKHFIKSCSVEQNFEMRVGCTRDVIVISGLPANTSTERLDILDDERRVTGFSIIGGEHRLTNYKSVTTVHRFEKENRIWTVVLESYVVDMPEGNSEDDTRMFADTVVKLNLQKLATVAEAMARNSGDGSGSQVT
# T1 sequence (P49597 1-434): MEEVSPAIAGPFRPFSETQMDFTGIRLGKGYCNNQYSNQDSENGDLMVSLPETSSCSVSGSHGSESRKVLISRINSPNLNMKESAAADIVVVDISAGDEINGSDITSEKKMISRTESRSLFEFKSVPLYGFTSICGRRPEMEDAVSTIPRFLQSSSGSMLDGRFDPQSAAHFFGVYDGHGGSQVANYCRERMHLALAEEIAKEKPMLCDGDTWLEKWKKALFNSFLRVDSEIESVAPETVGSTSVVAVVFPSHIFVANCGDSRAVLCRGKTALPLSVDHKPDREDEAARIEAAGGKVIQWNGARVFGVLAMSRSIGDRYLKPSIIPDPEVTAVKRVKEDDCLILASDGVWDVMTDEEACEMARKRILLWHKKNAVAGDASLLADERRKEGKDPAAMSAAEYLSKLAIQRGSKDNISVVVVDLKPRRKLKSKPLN
# Excerpt: Effects of the phytohormone abscisic acid (ABA) on the behaviour of plants under abiotic stress and the mechanism of action of ABA are described in the literature (cf. Abrams et al., WO97/23441, Cutler, Park et al. Science, 2009, 324, 1068; Grill et al. Science, 2009, 324, 1064; Tanokura et al. Biophysics, 2011, 7, 123; Schroeder et al. Plant J. 2010, 61, 290). Therefore, it is possible with the aid of a suitable in vitro test system to derive a correlation between the action of ABA and the stress response of a plant under abiotic stress. In the event of water deficiency (drought stress), plants form the phytohormone abscisic acid (ABA). […]
# The assay described hereinafter utilizes the inhibition of the phosphatase ABI1 via the co-regulator RCAR11/PYR1 aus Arabidopsis thaliana. For the determination of activity, the dephosphorylation of 4-methylumbelliferyl phosphate (MUP) was measured at 460 nm. […]
# Enzyme buffer mix and substrate mix were made up 5 minutes prior to the addition and warmed to a temperature of 35° C. […] Finally, a relative fluorescence measurement was made at 35° C. with a BMG Labtech “POLARstar Optima” microplate reader using a 340/10 nm excitation filter and a 460 nm emission filter. […]
# Zea mays = experiment: In vivo drought stress test on crop plants, spray application, visual scoring vs stressed control (ZEAMX); design: key: 0: no positive effect; 10: slight positive effect; 20: clear positive effect; 30: strong positive effect; conditions: dosage 250 g/ha, average score of 3 pots vs stressed control
# Experimental: (§1) Seeds of monocotyledonous and dicotyledonous crop plants were sown in sandy loam in plastic pots, covered with soil or sand and cultivated in a greenhouse under good growth conditions. The trial plants were treated at the early leaf stage (BBCH10-BBCH13). To assure uniform water supply before commencement of stress, the potted plants were supplied with water by dam irrigation prior to substance application. The inventive compounds, formulated in the form of wettable powders (WP), were sprayed onto the green parts of the plants as an aqueous suspension at an equivalent water application rate of 600 I/ha with addition of 0.2% wetting agent (e.g. agrotin). Substance application was followed immediately by stress treatment of the plants. […] Once this juncture had been reached, the appearance of the plants treated with test substances was recorded in comparison to the stressed control plants by the following categories: • 0 no positive effect • 10 slight positive effect • 20 clear positive effect • 30 strong positive effect In order to rule out any influence on the effects observed by any fungicidal or insecticidal action of the test compounds, it was additionally ensured that the tests proceeded without fungal infection or insect infestation. In each test, for each crop and dosage, plants in 3 pots were treated and evaluated separately. […]
# Triticum aestivum = experiment: In vivo drought stress test on crop plants, spray application, visual scoring vs stressed control (TRZAS); design: key: 0: no positive effect; 10: slight positive effect; 20: clear positive effect; 30: strong positive effect; conditions: dosage 250 g/ha, average score of 3 pots vs stressed control
# Experimental: as §1
Structure (SMILES),ABI1 inhibition [1],Effect (ZEAMX) (Zea mays),Effect (TRZAS) (Triticum aestivum)
"CC(C)C(O)(C#Cc1ccccc1C(=O)O)C1(C#N)CC1 (stereo not shown) [I.1-127, 2-[3-(1-Cyanocyclopropyl)-3-hydroxy-4-methylpent-1-yn-1-yl]benzoic acid]",+++ (90%>inhibition≧70%),–,–
"COC(=O)c1ccccc1C#CC(O)(C(C)C)C1(C#N)CC1 (stereo not shown) [I.1-130, Methyl 2-[3-(1-cyanocyclopropyl)-3-hydroxy-4-methylpent-1-yn-1-yl]benzoate]",–,20,20
"CC1=CC(=O)CC(C)(C)[C@@]1(O)/C=C/C(C)=C\C(=O)O [abscisic acid, reference compound]",++++ (inhibition≧90%),–,–
